Active and inactive are the calls of the source. How the calls were made is not given here. Where only a bound is given, the exact number is not on record here.

This experiment is described as follows: H9c2 cardiomyoblast viability modulators under 2-DG – cell-based, ATPlite luminescence, rat, set 2, myocardial damage modulator project, dose response (AID 602210). The note with it: H9c2 rat cardiomyoblasts, 2-deoxyglucose-induced death, 2 h. A general note: In ATP-based viability assays light output follows the ATP content of the culture.
Usually IC50 stands for the concentration needed to halve the response being measured. `O=C(c1cc(-c2cccnc2)nc2ccc(Br)cc12)N1CCN(c2ncccn2)CC1`: the IC50 is 16.2 µM (inactive). For `C[C@H](CO)N1C[C@H](C)[C@@H](CN(C)S(=O)(=O)c2ccccc2)Oc2ccc(NC(=O)Nc3ccccc3)cc2C1=O` the value was 36.2 µM (inactive); for `COc1ccc(-c2cc(-c3nnc(COC(=O)C4CC4C)o3)c3ccccc3n2)cc1OC` (stereo not drawn), 10.3 µM (inactive). To `CC(=O)Nc1cc(-c2ccc(C(=O)N3CCOCC3)cc2)cn2c(-c3ccc(C(C)=O)cc3)cnc12` belongs 27.1 µM (inactive); to `Cc1c(OCC(=O)NCCN2CCOCC2)ccc2c1oc(=O)c1ccccc12`, 17.1 µM (inactive); to `COc1cc(C(=O)Nc2nc(-c3cccs3)cs2)cc(OC)c1OC`, 8.7 µM.

Turning to `COC(=O)c1cc(NC(=O)Nc2cc(OC)ccc2OC)cc(C(=O)OC)c1`, the IC50 was > 79 µM (inactive). For `COc1cc(OC)cc(C(=O)Nc2ccc(C(=O)Nc3ccccc3OC)cc2)c1` the value was 16.6 µM (inactive). To `Cc1cc(C)cc(OCC(=O)Nc2cccc(-c3nc4ncccc4o3)c2)c1` belongs 14.3 µM (inactive). To `COc1cc(-c2cc(C(=O)Nc3cccc(C(C)=O)c3)c3ccccc3n2)cc(OC)c1OC` belongs 9.8 µM; to `COc1cc(-c2cc(C(=O)N3CCN(c4ccccn4)CC3)c3ccccc3n2)cc(OC)c1OC`, 26.2 µM (inactive). For `Cc1ccc(NC(=O)c2cc(-c3cccs3)nc3ccccc23)nc1`, the IC50 is > 79 µM (inactive). For `CC(=O)Nc1cccc(-c2cc(NC(C)=O)c3ncc(-c4ccccc4)n3c2)c1` the value was 12.2 µM (inactive).

As to `COc1ccccc1OP(=O)(Nc1cccnc1)Oc1ccccc1OC`, the IC50 was 8.19 µM. As for `COc1ccc(CCCNC(=O)C2(C)Cc3c(-c4ccc(NC(C)=O)cc4)ccnc3O2)cc1` (stereo not drawn), the IC50 was 12.5 µM (inactive). For `O=C(c1ccco1)N1CCN(C(=O)c2cc(-c3ccncc3)nc3ccc(Br)cc23)CC1` the value was 25.8 µM (inactive); for `COc1ccc(-c2cc3nc(-c4ccccc4)cc(N4CCN(C(C)=O)CC4)n3n2)cc1`, 16.1 µM (inactive). In the case of `CC(C)CCN(C(=O)CNC(=O)c1ccco1)C(C(=O)NC1CCCCC1)c1ccco1` (stereo not drawn), the IC50 is > 79 µM (inactive). For `CC1(c2ccccc2)NC(=O)N(CC(=O)Nc2cccc(/C=C/c3ccccn3)c2)C1=O` (stereo not drawn) the value was 21.8 µM (inactive). To `CCOc1ncccc1C(=O)Nc1cccc(-c2nc3cccnc3s2)c1` belongs 7 µM. To `CC1Cc2ccccc2N1C(=O)c1cc2c(=O)n3ccccc3nc2n1C` (stereo not drawn) belongs 7.6 µM; to `COc1ccc(-c2csc(NC(=O)CCCc3nc4ccccc4c(=O)[nH]3)n2)cc1OC`, 23.3 µM (inactive). As for `N#Cc1cnn2cc(-c3ncc(C(F)(F)F)cc3Cl)cnc12`, the IC50 is 47.7 µM (inactive). Turning to `COC(=O)c1ccccc1NC(=O)c1ccc2nccnc2c1`, the IC50 is 48.8 µM (inactive). For `CCC(C)N1C(=O)S/C(=C/c2ccc3c(c2)n(C)c(=O)n3C)C1=O` (stereo not drawn) the value was > 79 µM (inactive); for `O=C(CSc1nnc(Cc2cccs2)n1CCc1ccccc1)N1CCCc2ccccc21`, 13.9 µM (inactive); for `Cc1ccc(C)c(C(=O)Nc2cc(C)nn2-c2nc(C)cc(C)n2)c1`, 30.1 µM (inactive). For `O=C(C[C@H]1C/C=C\CC[C@H](Cc2ccc(F)cc2)C(=O)O[C@H](c2ccccc2)CNC1=O)N[C@H](CO)Cc1ccccc1` the value was 7.55 µM; for `CC(=O)Nc1cccc(-c2cc(NC=O)c3ncc(-c4ccc(C(C)=O)cc4)n3c2)c1`, 13.6 µM (inactive); for `CSc1nc2ncc3c(n2n1)CC1c2ccccc2CCN1C3=O` (stereo not drawn), 51.3 µM (inactive). For `COc1cc(C(=O)N/N=C/c2sc(N3CCOCC3)nc2-c2ccccc2)cc(OC)c1OC` the value was 30.9 µM (inactive).

For the compound `COc1ccc(OC)c(/C=N/Nc2nncn2/N=C/c2cc(OC)ccc2OC)c1`, the IC50 was > 79 µM (inactive).

Consider `O=C(NCC(=O)N(Cc1ccccc1)C(C(=O)NC1CCCCC1)c1ccco1)c1ccco1` (stereo not drawn), for which the IC50 is 24 µM (inactive). To `COc1ccc(OCC(O)Cn2c(Br)nc3c2c(=O)[nH]c(=O)n3C)cc1` (stereo not drawn) belongs 38.1 µM (inactive); to `COc1ccc(OC)c(NC(=O)c2sc3ncnc(N4CCN(c5ccccn5)CC4)c3c2C)c1`, 12.1 µM (inactive); to `COc1ccc(CCn2c(=O)c3cccnc3n(Cc3ccc([N+](=O)[O-])cc3)c2=O)cc1OC`, 14.5 µM (inactive). To `COc1ccc(-c2cc(NC=O)c3ncc(-c4cccc(C(C)=O)c4)n3c2)cc1` belongs > 79 µM (inactive); to `CC(=O)Nc1cccc(-c2cc(NC=O)c3ncc(-c4cccc(C(C)=O)c4)n3c2)c1`, 11 µM (inactive). For `COCCNC(=O)COC(=O)c1ccc(OCC(=O)Nc2ccccc2OC)c(OC)c1` the value was 22 µM (inactive). Take `COc1cc(-c2cc3nc(NCCOc4ccccc4)ccn3n2)cc(OC)c1OC`: the IC50 is 15.8 µM (inactive). To `CC(=O)c1ccc(N2CCN(C(=O)C3CCCN(c4ncnc5c4nc4n5CCCCC4)C3)CC2)cc1` (stereo not drawn) belongs 25.6 µM (inactive). For `Cc1ccc(C)c(NC(=O)C(Sc2nc3ccccc3c(=O)n2CC(C)C)c2ccccc2)c1` (stereo not drawn) the value was 0.34 µM; for `Cc1ccc2cc3c(NC(=O)c4cccnc4)nn(C)c3nc2c1`, 18.5 µM (inactive).

For the compound `COc1ccccc1CN(C)C(=O)c1cc(-c2cc(OC)c(OC)c(OC)c2)nc2ccccc12`, the IC50 was 10.4 µM (inactive). To `CCN(CC(=O)Nc1ccc(OC)cc1)C(=O)c1cc(-c2cccs2)nn1-c1ccccc1` belongs 7.55 µM. For `Cc1ccc(Cn2c(CCNc3nc(-c4ccc(Cl)c([N+](=O)[O-])c4)cs3)nc3cc(C(=O)NCCCO)ccc32)cc1` the value was > 79 µM (inactive); for `COc1cccc(-c2cnc3c(NC(C)=O)cc(-c4cccc(NS(C)(=O)=O)c4)cn23)c1`, 15.4 µM (inactive). For `COc1cc(/C=N/n2nnnc2Nc2ccccc2)cc(OC)c1OC` the value was 38.1 µM (inactive). Turning to `COc1ccc(Nc2nc(C(=O)N3CCc4cc(OC)c(OC)cc4C3)cs2)cc1`, the IC50 is 14.2 µM (inactive). With `CC(C)c1cc(N2CCN(C(=O)c3ccco3)CC2)n2c(nc3ccccc32)c1C#N`, the IC50 was 44.7 µM (inactive). To `COc1cc(/C=C(\C#N)C(=O)Nc2ccccc2F)ccc1OCCN1CCOCC1` belongs 41.2 µM (inactive). Take `COc1cc(Nc2nc3ccccc3n3nnnc23)cc(OC)c1OC`: the IC50 was 8.82 µM. On to `COc1ccc(COc2cc(-c3cccc(OC)c3)nc3ccc(NC(=O)c4ccc(OC)cc4)cc23)cc1`, for which the IC50 was 4.21 µM. For `COc1ccc(-c2cnc3c(NC=O)cc(-c4cccc(NS(C)(=O)=O)c4)cn23)cc1OC` the value was 13.4 µM (inactive); for `O=C(Nc1nc(-c2ccccn2)cs1)c1ccc(-c2ccccc2F)o1`, > 79 µM (inactive); for `COc1ccc2cc3cc(C(=O)NCCc4ccc(OC)c(OC)c4)oc3nc2c1`, 10.4 µM (inactive).

Regarding `COc1cccc(C(=O)Nc2cccc(-c3nnc(-c4ccco4)o3)c2)c1`, the IC50 was 12.6 µM (inactive). For `O=C(CNC(=O)c1[nH]cnc1C(=O)NC(c1ccccc1)c1ccccc1)OCc1ccccc1` the value was 22.3 µM (inactive).

Source of the values: PubChem BioAssay AID602210 (Sanford-Burnham Center for Chemical Genomics, 2012).
